Patent publication US12552737B2, “Salts of (2R, 6R)-hydroxynorketamine, their crystal forms, and methods of making the same” (THE UNITED STATES OF AMERICA, AS REPRESENTED BY THE …, priority 2019, dated 2026)

Experiments:
[1] = Dynamic vapor sorption (DVS) sorption-desorption; type: physicochemical; conditions: for hygroscopicity: DVS, water, 25° C., 0% RH to 95% RH
Description: Dynamic Vapor Sorption (DVS)
Typically, 20-50 mg of the test substances were mounted in a gauze basket and transferred to the sample port. Excess static electricity was removed throughout sample handling and sample mounting using a 210Po static eliminator. Instrument performance checks were completed using traceable samples of sodium chloride and lithium chloride.

[2] = based on X-ray powder diffraction data
Description: X-Ray Powder Diffraction (XRPD)
X-ray powder diffractograms were acquired using a Bruker D5000 diffractometer in Bragg-Brentano configuration. Extended acquisition parameters were employed for each batch of the drug substance, as detailed below. • Acquisition parameters: • Source: CuKα • Wavelength: 1.5406 Å • Scan range: 2-40° (2θ) • Step size: 0.01° (2θ) • Time per step: 4.0 s • Divergence slit width: 2 mm • Antiscatter slit width: 2 mm • Detector slit width: 0.2 mm • Sample rotation: Engaged • Tube accelerating potential: 40 kV • Tube accelerating current: 30 mA • Temperature: Ambient (nominally 18-22° C.)
Approximately 2 mg of each sample was mounted on a silicon base for the analyses.
All the data were smoothed by use of Fourier algorithms and the background was subtracted from each diffractogram. Instrument performance checks were completed prior to measurements using a NIST traceable standard of corundum and also using a standard of Arkansas stone quartz.
Dynamic vapor sorption-desorption experiments were carried out using a DVS Resolution instrument supplied by Surface Measurement Systems. […]

| Structure (SMILES) | hygroscopicity [1] | hygroscopicity ([1]; listed as (2R,6R)-hydroxynorketamine malonate) | hygroscopicity ([1]; listed as (2R,6R)-hydroxynorketamine salicylate) | water acquired in DVS isotherm ([1]; over the entire range of relative humidities (0% RH to 95% RH)) | change of physical form on exposure to elevated relative humidities [2] |
| --- | --- | --- | --- | --- | --- |
| NC1(c2ccccc2Cl)CCCC(O)C1=O.O=C(O)CC(=O)O (stereo not drawn) [RR-HNK malonate, 2R,6R-hydroxynorketamine (RR-HNK) Malonate] | non-hygroscopic | very low hygroscopicity | – | – | – |
| N[C@@]1(c2ccccc2Cl)CCC[C@@H](O)C1=O.O=C(O)c1ccccc1O [RR-HNK salicylate, 2R,6R-hydroxynorketamine (RR-HNK) Salicylate] | non-hygroscopic | – | very low hygroscopicity | acquires very little water | does not change the physical form |
